In this experiment the target is T1, Human MTHFD2 (Homo sapiens, UniProt P13995).
T1 construct: residues 36-350 in Uniport ID P13995; His6 (N); made in house; host or cells: E. coli
T1 sequence (P13995 36-350): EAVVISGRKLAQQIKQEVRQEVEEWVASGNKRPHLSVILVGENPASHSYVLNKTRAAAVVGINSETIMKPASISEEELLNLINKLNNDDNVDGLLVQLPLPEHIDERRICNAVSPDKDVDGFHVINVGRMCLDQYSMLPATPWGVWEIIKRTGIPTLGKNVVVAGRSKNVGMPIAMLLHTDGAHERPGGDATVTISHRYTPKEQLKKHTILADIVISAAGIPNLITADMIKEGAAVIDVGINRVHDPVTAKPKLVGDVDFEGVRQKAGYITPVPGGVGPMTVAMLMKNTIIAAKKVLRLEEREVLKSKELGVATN
Put plainly: MTHFD2 Activity Assay (dehydrogenase activity, diaphorase/resazurin coupled fluorescence). Particulars: inhibitory activity (IC50 and/or binding constant); 0.2 nM MTHFD2, 11 concentrations. The format is biochemical. In a few lines: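 Resorufin fluorescence (ex 525, em 598 nm) reports NADH formed by the dehydrogenase via diaphorase coupling. Enzyme (0.2 nM, residues 36-350, N-His6) sat with compound 15 min before 70 μM CH2-THF and 1 mM NAD+ started a 30 min reaction. IC50s come from 4-parameter fits over 11 concentrations.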
In general terms: Alamar Blue is a resazurin reagent that responds to reducing activity.
One may read the IC50 as the concentration at which inhibition is half-maximal. Low readings indicate greater potency in that assay, high ones weaker potency in that assay. The compound `Cn1c(Cn2c(=O)c3c(nc(-n4nccc4N)n3C)n(C)c2=O)cc2cc(Cl)ccc21` [Example 220, 8-(5-amino-1H-pyrazol-1-yl)-1-((5-chloro-1-methyl-1H-indol-2-yl)methyl)-3,7-dimethyl-1H-purine-2,6(3H,7H)-dione] yielded an IC50 of 0.01 to 1 µM. With `Cn1c(N[C@@H]2CCCNC2=O)nc2c1c(=O)n(Cc1cc3ccccc3[nH]1)c(=O)n2C` [Example 221, (R)-1-((1H-indol-2-yl)methyl)-3,7-dimethyl-8-(2-oxopiperidin-3-ylamino)-1H-purine-2,6(3H,7H)-dione], the IC50 was in the range of 1 to 5 µM.

Compound `Cn1c(CCO)nc2c1c(=O)n(Cc1cc3cc(Cl)ccc3[nH]1)c(=O)n2C` [Example 223, 1-((5-chloro-1H-indol-2-yl)methyl)-8-(2-hydroxyethyl)-3,7-dimethyl-1H-purine-2,6(3H,7H)-dione] had an IC50 of 1 to 5 µM. The same measure for `Cn1c(Cn2c(=O)c3c(nc(Nc4cc[nH]c(=O)n4)n3C)n(C)c2=O)cc2cc(Cl)ccc21` [Example 224, 1-((5-chloro-1-methyl-1H-indol-2-yl)methyl)-3,7-dimethyl-8-(2-oxo-1,2-dihydropyrimidin-4-ylamino)-1H-purine-2,6(3H,7H)-dione]: 0.01 to 1 µM; for `Cn1c(Cn2c(=O)c3c(nc(CCN4CCOCC4)n3C)n(C)c2=O)cc2cc(Cl)ccc21` [Example 225, 1-((5-chloro-1-methyl-1H-indol-2-yl)methyl)-3,7-dimethyl-8-(2-morpholinoethyl)-1H-purine-2,6(3H,7H)-dione]: 0.01 to 1 µM. In turn, `Cn1c(CCN2CCOCC2)nc2c1c(=O)n(Cc1cc3ccccc3[nH]1)c(=O)n2C` [Example 226, 1-((1H-indol-2-yl)methyl)-3,7-dimethyl-8-(2-morpholinoethyl)-1H-purine-2,6(3H,7H)-dione] showed an IC50 of 0.01 to 1 µM. The same measure for `Cc1ccc2[nH]c(Cn3c(=O)c4c(nc(CCN5CCOCC5)n4C)n(C)c3=O)cc2c1` [Example 227, 3,7-dimethyl-1-((5-methyl-1H-indol-2-yl)methyl)-8-(2-morpholinoethyl)-1H-purine-2,6(3H,7H)-dione]: 1 to 5 µM; for `Cn1c(CCN2CCOCC2)nc2c1c(=O)n(Cc1cc3cc(Cl)ccc3[nH]1)c(=O)n2C` [Example 229, 1-((5-chloro-1H-indol-2-yl)methyl)-3,7-dimethyl-8-(2-morpholinoethyl)-1H-purine-2,6(3H,7H)-dione]: 0.01 to 1 µM; for `Cn1c(Cn2c(=O)c3c(nc(-n4ncnc4N)n3C)n(C)c2=O)cc2cc(Cl)ccc21` [Example 230, 8-(5-amino-1H-1,2,4-triazol-1-yl)-1-((5-chloro-1-methyl-1H-indol-2-yl)methyl)-3,7-dimethyl-1H-purine-2,6(3H,7H)-dione]: 0.01 to 1 µM. The compound `Cn1c(N)nc2c1c(=O)n(Cc1cc3ccccc3[nH]1)c(=O)n2C` [Example 231, 1-((1H-indol-2-yl)methyl)-8-amino-3,7-dimethyl-1H-purine-2,6(3H,7H)-dione] returned an IC50 of 5 to 10 µM. The same measure for `Cc1ccc2[nH]c(Cn3c(=O)c4c(nc(N)n4C)n(C)c3=O)cc2c1` [Example 232, 8-amino-3,7-dimethyl-1-((5-methyl-1H-indol-2-yl)methyl)-1H-purine-2,6(3H,7H)-dione]: greater than 10 µM.

`Cc1ccc2c(c1)cc(Cn1c(=O)c3c(ncn3C)n(C)c1=O)n2C` [Example 233, 1-((1,5-dimethyl-1H-indol-2-yl)methyl)-3,7-dimethyl-1H-purine-2,6(3H,7H)-dione] registered an IC50 of 5 to 10 µM.

In turn, `Cn1cnc2c1c(=O)n(Cc1cc3ccccc3[nH]1)c(=O)n2C` [Example 234, 1-((1H-indol-2-yl)methyl)-3,7-dimethyl-1H-purine-2,6(3H,7H)-dione] yielded a half-maximal inhibitory concentration (IC50) of 1 to 5 µM. The same measure for `Cn1cnc2c1c(=O)n(Cc1cc3ccccc3n1C)c(=O)n2C` [Example 235, 3,7-dimethyl-1-((1-methyl-1H-indol-2-yl)methyl)-1H-purine-2,6(3H,7H)-dione]: 1 to 5 µM; for `Cc1ccc2[nH]c(Cn3c(=O)c4c(ncn4C)n(C)c3=O)cc2c1` [Example 236, 3,7-dimethyl-1-((5-methyl-1H-indol-2-yl)methyl)-1H-purine-2,6(3H,7H)-dione]: 1 to 5 µM. The same measure for `Cn1c(Cn2c(=O)c3c(nc(N)n3C)n(C)c2=O)cc2cc(Cl)ccc21` [Example 237, 8-amino-1-((5-chloro-1-methyl-1H-indol-2-yl)methyl)-3,7-dimethyl-1H-purine-2,6(3H,7H)-dione]: 1 to 5 µM; for `COc1ccc2c(c1)cc(Cn1c(=O)c3c(ncn3C)n(C)c1=O)n2C` [Example 238, 1-((5-methoxy-1-methyl-1H-indol-2-yl)methyl)-3,7-dimethyl-1H-purine-2,6(3H,7H)-dione]: greater than 10 µM. The same measure for `COc1ccc2[nH]c(Cn3c(=O)c4c(ncn4C)n(C)c3=O)cc2c1` [Example 239, 1-((5-methoxy-1H-indol-2-yl)methyl)-3,7-dimethyl-1H-purine-2,6(3H,7H)-dione]: 1 to 5 µM. Turning to `Cn1cnc2c1c(=O)n(Cc1cc3cc(Cl)ccc3[nH]1)c(=O)n2C` [Example 240, 1-((5-chloro-1H-indol-2-yl)methyl)-3,7-dimethyl-1H-purine-2,6(3H,7H)-dione], the IC50 is 1 to 5 µM. The same measure for `Cn1c(N)nc2c1c(=O)n(Cc1cc3cc(Cl)ccc3[nH]1)c(=O)n2C` [Example 241, 8-amino-1-((5-chloro-1H-indol-2-yl)methyl)-3,7-dimethyl-1H-purine-2,6(3H,7H)-dione]: 5 to 10 µM. The same measure for `Cn1cnc2c1c(=O)n(Cc1cc3cc(Cl)ccc3n1C)c(=O)n2C` [Example 242, 1-((5-chloro-1-methyl-1H-indol-2-yl)methyl)-3,7-dimethyl-1H-purine-2,6(3H,7H)-dione]: 1 to 5 µM; for `COc1ccc2[nH]c(Cn3c(=O)c4c(nc(N)n4C)n(C)c3=O)cc2c1` [Example 243, 8-amino-1-((5-methoxy-1H-indol-2-yl)methyl)-3,7-dimethyl-1H-purine-2,6(3H,7H)-dione]: greater than 10 µM. The same measure for `Cn1c(C(N)=O)nc2c1c(=O)n(Cc1ccc(Cl)c(Cl)c1)c(=O)n2C` [Example 244, 1-(3,4-dichlorobenzyl)-3,7-dimethyl-2,6-dioxo-2,3,6,7-tetrahydro-1H-purine-8-carboxamide]: 1 to 5 µM; for `Cn1c(NC2COC2)nc2c1c(=O)n(Cc1ccc(Cl)c(Cl)c1)c(=O)n2C` [Example 245, 1-(3,4-dichlorobenzyl)-3,7-dimethyl-8-(oxetan-3-ylamino)-1H-purine-2,6(3H,7H)-dione]: 0.01 to 1 µM. On to `Cn1c(=O)n(Cc2ccc(Cl)c(Cl)c2)c(=O)c2c1ncn2CC(N)=O` [Example 246, 2-(1-(3,4-dichlorobenzyl)-3-methyl-2,6-dioxo-2,3-dihydro-1H-purin-7(6H)-yl)acetamide], for which the IC50 is greater than 10 µM.

The compound `Cn1c(=O)n(Cc2ccc(Cl)c(Cl)c2)c(=O)c2c1ncn2CCO` [Example 248, 1-(3,4-dichlorobenzyl)-7-(2-hydroxyethyl)-3-methyl-1H-purine-2,6(3H,7H)-dione] registered an IC50 of 5 to 10 µM. The same measure for `COc1cc(Cn2c(=O)c3c(ncn3C)n(C)c2=O)ccc1Cl` [Example 249, 1-(4-chloro-3-methoxybenzyl)-3,7-dimethyl-1H-purine-2,6(3H,7H)-dione]: greater than 10 µM.
